For two compounds, IC50 results are on record in PMC6951815 (Free radical biology & medicine, 2019).

The target of this assay is Cys-TrxR (recombinant E. coli thioredoxin reductase) (Escherichia coli, UniProt P0A9P4). Nature of the assay: Trx-dependent reduction assay. In kind it is biochemical.
Chain of Cys-TrxR (recombinant E. coli thioredoxin reductase) (P0A9P4 2-321): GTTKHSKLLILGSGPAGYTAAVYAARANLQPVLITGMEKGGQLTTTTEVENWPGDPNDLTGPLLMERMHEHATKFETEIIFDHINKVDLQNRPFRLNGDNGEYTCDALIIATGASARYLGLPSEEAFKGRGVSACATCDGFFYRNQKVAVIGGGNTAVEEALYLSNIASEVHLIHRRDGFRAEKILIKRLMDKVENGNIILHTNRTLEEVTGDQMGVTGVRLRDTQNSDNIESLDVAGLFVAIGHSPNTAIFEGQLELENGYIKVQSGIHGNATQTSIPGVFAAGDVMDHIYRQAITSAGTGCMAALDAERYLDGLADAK

As a reminder, the IC50 is the midpoint of a concentration-inhibition curve. For `N#C[Se]O` [HOSeCN], the half-inhibitory concentration (IC50) was found to be 4.3 µM.
For `N#CSO` [HOSCN] the value was 9.3 µM.
